Test results: PMC5166568, “Flexible synthesis of cationic peptide–porphyrin derivatives for light-triggered drug delivery and photodynamic therapy” (Organic & Biomolecular Chemistry, 2016)

Key:
MC28 cells [1] = test system: MC28 cells
MC28 cells [2] = test system: MC28 cells; remark: listed apart in the source
MC28 cells [3] = format: cell-based, rat

Row | Compound | LD50 PDT (MC28 cells [1]; 18 h) | LD50 dark (MC28 cells [1]; 24 h) | cellular uptake (MC28 cells [2]) | subcellular localisation (MC28 cells [2]) | reduction in viability using saporin alone (MC28 cells [3])
1 | N=C(N)NCCC[C@H](NC(=O)CN)C(=O)N[C@@H](CCCCN)C(=O)N[C@@H](CCCCN)C(=O)N[C@@H](CCCNC(=N)N)C(=O)N[C@@H](CCCNC(=N)N)C(=O)N[C@@H](CCC(N)=O)C(=O)N[C@@H](CCCNC(=N)N)C(=O)N[C@@H](CCCNC(=N)N)C(=O)N[C@@H](CCCNC(=N)N)C(=O)NCC(=O)N[C@@H](Cc1ccc(O)cc1)C(=O)N[C@@H](CCCCN)C(=O)N[C@@H](CSC1CC(=O)N(CCC(=O)Nc2ccc(-c3c4nc(c(-c5ccccc5)c5ccc([nH]5)c(-c5ccccc5)c5nc(c(-c6ccccc6)c6ccc3[nH]6)C=C5)C=C4)cc2)C1=O)C(N)=O (some centres unmarked) [Compound 20] | 94 ± 6 nM | ≫1 μM | efficient uptake | Endolysosomal localisation | 
2 | saporin |  |  |  |  | approximately 10%
